What all share (assay type): biochemical, murine
For test [1], the target named is T1, mCOX-2^V349L (Mus musculus, UniProt Q05769, V335L).
T1 construct: made in house; host or cells: Sf9 insect cells (baculovirus, pVL1393)
T1 sequence (Q05769 18-604 V335L): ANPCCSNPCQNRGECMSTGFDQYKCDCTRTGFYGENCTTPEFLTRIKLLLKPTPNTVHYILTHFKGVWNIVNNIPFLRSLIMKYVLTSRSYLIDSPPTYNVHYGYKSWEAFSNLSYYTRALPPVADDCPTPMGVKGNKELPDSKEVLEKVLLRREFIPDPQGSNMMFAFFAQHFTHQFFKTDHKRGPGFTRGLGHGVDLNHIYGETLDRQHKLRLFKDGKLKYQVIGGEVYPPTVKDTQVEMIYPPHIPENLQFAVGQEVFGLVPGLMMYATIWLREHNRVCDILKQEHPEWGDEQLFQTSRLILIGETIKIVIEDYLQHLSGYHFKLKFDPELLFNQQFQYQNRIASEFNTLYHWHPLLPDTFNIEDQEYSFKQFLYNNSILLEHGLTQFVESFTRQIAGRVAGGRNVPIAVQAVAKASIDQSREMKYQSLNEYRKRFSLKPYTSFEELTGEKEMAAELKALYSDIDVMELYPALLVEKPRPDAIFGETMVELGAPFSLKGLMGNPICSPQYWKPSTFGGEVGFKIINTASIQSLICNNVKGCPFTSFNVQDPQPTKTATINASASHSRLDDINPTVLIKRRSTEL
The test can be described thus: Kinetics of time-dependent COX inhibition. The protocol: (§1) Assays were terminated and analyzed for substrate consumption by thin layer chromatography. […] Time-dependent COX inhibition reactions were pre-incubated at 37° C. for varying lengths of time (0-30 minutes) with various concentrations of inhibitor. All reactions were performed with [1-^14C]-AA for 30 seconds at 37° C.; reactions were terminated and analyzed as described above.
(§2) To ensure that pseudo-first-order conditions were maintained, the enzymatic oxygenation reactions were terminated after 30 seconds to prevent extensive consumption of substrate. The decline of substrate conversion at different INDO concentrations was plotted against the pre-incubation times and fit to a single exponential decay with a plateau to determine kobs (FIG. 2).
(§3) The rate constant k2 represents the limiting forward rate constant for functionally irreversible inhibition, and KI corresponds to the inhibitor concentration that yields a rate equal to half of the limiting rate.

Test [2] deals with T2, wild type mCOX-2 (Mus musculus, UniProt Q05769).
T2 construct: made in house; host or cells: Sf9 insect cells (baculovirus, pVL1393)
T2 sequence (Q05769 18-604): T1 sequence (Q05769 18-604 V335L) with L318V
The test can be described thus: Kinetics of time-dependent COX inhibition. The protocol:
as §1, §2, §3

For test [3], the target named is T3, mCOX-2^V349I (Mus musculus, UniProt Q05769, V335I).
T3 construct: made in house; host or cells: Sf9 insect cells (baculovirus, pVL1393)
T3 sequence (Q05769 18-604 V335I): T1 sequence (Q05769 18-604 V335L) with L318I
The test can be described thus: Activity recovery assay (reversibility of COX inhibition). The note with it: 10 μM inhibitor, 50 μM AA. As for the experimental part:
(§4) The reversibility of the second step in equation (1) could be directly evaluated by the amount of enzyme activity recovered after a prolonged incubation time with substrate. […] The enzymes were pre-incubated for 20 minutes with DMSO or 10 μM INDO, prior to the addition of 50 μM AA. After addition of AA, the oxygenation reactions were allowed to proceed for varying lengths of time. As the reaction time increased, the extent of inhibition decreased if INDO binding was reversible. The time course for recovery of AA oxygenation was fit to a single exponential (FIG. 3A).
(§5) The reversibility of DM-INDO inhibition was evaluated similarly to INDO using the activity recovery assay (FIG. 3). The experiments and analysis were performed as described above.

In test [4] the target is T2, wild type mCOX-2. The description is as above. The note with it: 10 μM inhibitor, 50 μM AA. The protocol: as §4, §5

Where a chain is given by its changes, count along the chain named.

With `COc1ccc2c(c1)c(CC(=O)O)cn2C(=O)c1ccc(Cl)cc1` [DM-INDO, 2-Des-methylindomethacin], the “remaining activity approached (plateau) in time-dependent inhibition curves” value in test [1] (V349L) was “about 30%”. Besides, the “higher concentrations required for V349L to achieve similar inhibition as wild type mCOX-2” value in test [1] (V349L versus wild type mCOX-2) is listed as about 10 fold. In addition, the “k−2 (y-intercept of linear regression analysis)” value in test [1] (V349L, graph did not plateau, linear regression) was 0.0025 ± 0.0003 s⁻¹. Further, in test [2], the “off-rate constant slower than the on-rate” value worked out at 14 fold and the “remaining activity approached (plateau) in time-dependent inhibition curves” value is listed as “about 30%”. Further, the “on-rate constant (k2) faster than for INDO” value in test [2] (DM-INDO versus INDO) is 14 fold. In addition, in test [2] (time-dependent inhibition), the Ki is 26 ± 7 µM, the k2 is 0.80 ± 0.03 s⁻¹ and the “k−2” value turned out to be 0.05 ± 0.02 s⁻¹. Further, in test [3], the “K−2^b (rate constant determined by reversible inhibition)” value worked out at 0.015 ± 0.005 s⁻¹. The “K−2^b (rate constant determined by reversible inhibition)” value in test [4] worked out at 0.023 ± 0.001 s⁻¹.

Values taken from patent US8168656B2, “Indoleacetic acid and indenacetic acid derivatives as therapeutic agents with reduced gastrointestinal toxicity” (Vanderbilt University, priority 2009, dated 2012).
